# According to patent US20190054103A1, “METHOD OF TREATMENT OF TP53 WILD-TYPE TUMORS WITH 2',2'-DIFLUORO-5-AZA-2'-DEOXYCYTIDINE OR PRODRUGS THEREOF” (priority 2016, published 2019):
# Experiments:
# [1] = system: EKVX; assay: NCI 60 Cell Line Panel growth inhibition; format: cell-based, human; conditions: Lung-NSCL, TP53 null/mutant
# Excerpt: (§1) The NCI-60 Cell Line Panel was assembled by the National Cancer Institute as an in vitro anticancer drug screen. The panel comprises human cancer cell lines representing nine different tissues of origin: breast, colon, central nervous system, renal, lung, melanoma, ovarian, prostate, and hematogenous. […] See, e.g., Leroy et al. “Analysis of TP53 Mutation Status in Human Cancer Cell Lines: a Reassesment” Hum Mutat 2014 35(6): 756-765.
# [2] = system: HCC-2998; assay: NCI 60 Cell Line Panel growth inhibition; format: cell-based, human; conditions: HCC-2998, Colon cancer, TP53 null/mutant
# Excerpt: as §1
# [3] = system: NCI-H460; assay: NCI 60 Cell Line Panel growth inhibition; format: cell-based, human; conditions: NCI-H460, Lung-NSCL, TP53 wild type
# Excerpt: as §1
# [4] = system: SK-MEL-28; assay: NCI 60 Cell Line Panel growth inhibition; format: cell-based, human; conditions: SK-MEL-28, Melanoma, TP53 null/mutant
# Excerpt: as §1
# [5] = system: SNB-19; assay: NCI 60 Cell Line Panel growth inhibition; format: cell-based, human; conditions: SNB-19, CNS cancer, TP53 null/mutant
# Excerpt: as §1
# [6] = system: TP53 WT colon cancer cell line Ls174T; assay: CellTiter-Glo growth inhibition, Ls174T; format: cell-based; conditions: Homo sapiens, 72-hour exposure, FIG. 1
# Experimental: (§2) Two examples of additional comparisons are provided below for colon cancer cell lines (TP53 WT colon cancer cell line Ls174T and TP53 WT colon cancer cell line LoVo).
# (§3) In these assays, two 96 well plates of each cell line were seeded with 5,000 cells per well in a total volume of […] per well and left incubating overnight. The following day, the cells were exposed to different concentrations of NUC013. At the end of a 72-hour exposure period, the plates were removed for CellTiter-Glo® assay. Luminescence was recorded on a Synergy 4.0.
# [7] = system: TP53 WT colon cancer cell line LoVo; assay: CellTiter-Glo growth inhibition, LoVo; format: cell-based; conditions: Homo sapiens, 72-hour exposure, FIG. 2
# Experimental: as §2, §3
smiles,measurement,setting,value
"Nc1ncn([C@@H]2O[C@H](CO)[C@@H](O)C2(F)F)c(=O)n1 [NUC013, 4-amino-1-((2R,4R,5R)-3,3-difluoro-4-hydroxy-5-(hydroxymethyl)tetrahydrofuran-2-yl)-1,3,5-triazin-2(1H)-one]",Growth (%) at 10 μM,[1],86.06%
same,Growth (%) at 10 μM,[2],60.44%
same,Growth (%) at 10 μM,[3],9.34%
same,Growth (%) at 10 μM,[4],78.46%
same,Growth (%) at 10 μM,[5],58.88%
same,GI50,[6],1300 nM
same,GI50,[7],3000 nM
